Columns and labels:
Type in all cases: cell-based, human
[1] = test system: breast cancer cell line MCF7; assay: MTT cytotoxicity assay, MCF7
OVCAR-4 (ovarian cancer) = assay: NCI 60-cell one-dose antiproliferative screen; conditions: one dose 10 μM
U251 (CNS cancer) = assay: NCI 60-cell one-dose antiproliferative screen; conditions: one dose 10 μM
SF-268 (CNS cancer) = assay: NCI 60-cell one-dose antiproliferative screen; conditions: one dose 10 μM
p-PI3K = assay: Phosphorylated PI3K ELISA in MCF7 cells; conditions: 4g at its IC50 0.56 μM, compared to untreated MCF7 cells
[2] = test system: MDA-MB-468 (breast cancer); assay: NCI 60-cell one-dose antiproliferative screen; conditions: one dose 10 μM
UACC-257 (melanoma) = assay: NCI 60-cell one-dose antiproliferative screen; conditions: one dose 10 μM
SK-MEL-2 (melanoma) = assay: NCI 60-cell one-dose antiproliferative screen; conditions: one dose 10 μM
UO-31 (renal cancer) = assay: NCI 60-cell one-dose antiproliferative screen; conditions: one dose 10 μM
A498 (renal cancer) = assay: NCI 60-cell one-dose antiproliferative screen; conditions: one dose 10 μM
T-47D (breast cancer) = assay: NCI 60-cell one-dose antiproliferative screen; conditions: one dose 10 μM
SNB-19 (CNS cancer) = assay: NCI 60-cell one-dose antiproliferative screen; conditions: one dose 10 μM
COLO-205 (colon cancer) = assay: NCI 60-cell one-dose antiproliferative screen; conditions: one dose 10 μM
SW-620 (colon cancer) = assay: NCI 60-cell one-dose antiproliferative screen; conditions: one dose 10 μM

COc1ccc(-c2nnc3ccc(NN=Cc4ccc(O)cc4)nn23)cc1 [Compound 4g, 4-((2-(3-(4-Methoxyphenyl)-[1,2,4]triazolo[4,3-b]pyridazin-6-yl)hydrazono)methyl)phenol]
IC50 ([1]; Homo sapiens, MCF7, 72 h, read-out: Cytotoxicity IC50 MCF7): 560 ± 30 nM | Selectivity index ([1]; IC50 on normal cells (MCF10a) / IC50 on cancer cells (MCF7)): 19.11 | GI% (OVCAR-4 (ovarian cancer)): 52.11% | GI% (U251 (CNS cancer)): 32.41% | GI% (SF-268 (CNS cancer)): 64.19% | inhibition of PI3K phosphorylation (p-PI3K): 55.5% | GI% [2]: 51.76% | GI% (UACC-257 (melanoma)): 17.70% | GI% (SK-MEL-2 (melanoma)): 26.79% | GI% (UO-31 (renal cancer)): 69.74% | GI% (A498 (renal cancer)): — (— GI% is below 15%) | GI% (T-47D (breast cancer)): 54.64% | GI% (SNB-19 (CNS cancer)): 32.46% | GI% (COLO-205 (colon cancer)): 43.51% | GI% (SW-620 (colon cancer)): 32.85%
